From ChEMBL document CHEMBL4052791, “GNE-886: A Potent and Selective Inhibitor of the Cat Eye Syndrome Chromosome Region Candidate 2 Bromodomain (CECR2)” (ACS Med Chem Lett, 2017)
Converted amounts (≈) assume the structure as drawn.

How the values were obtained:
[1] = biological target: T1, Bromodomain-containing protein 4 (Homo sapiens, UniProt O60885); test: Inhibition of recombinant human N-terminal His6-FLAG-tagged BRD4 bromodomain 1 expressed in Rosetta2 (DE3) pLysS cells after 60 mins by TR-FRET assay; type: cell-based
[2] = biological target: T2, Bromodomain-containing protein 9 (Homo sapiens, UniProt Q9H8M2); test: Inhibition of recombinant human N-terminal His6-FLAG-tagged BRD9 (unknown origin) expressed in Rosetta2 (DE3) pLysS cells after 60 mins by TR-FRET assay; type: cell-based
T2 sequence (Q9H8M2 whole entry): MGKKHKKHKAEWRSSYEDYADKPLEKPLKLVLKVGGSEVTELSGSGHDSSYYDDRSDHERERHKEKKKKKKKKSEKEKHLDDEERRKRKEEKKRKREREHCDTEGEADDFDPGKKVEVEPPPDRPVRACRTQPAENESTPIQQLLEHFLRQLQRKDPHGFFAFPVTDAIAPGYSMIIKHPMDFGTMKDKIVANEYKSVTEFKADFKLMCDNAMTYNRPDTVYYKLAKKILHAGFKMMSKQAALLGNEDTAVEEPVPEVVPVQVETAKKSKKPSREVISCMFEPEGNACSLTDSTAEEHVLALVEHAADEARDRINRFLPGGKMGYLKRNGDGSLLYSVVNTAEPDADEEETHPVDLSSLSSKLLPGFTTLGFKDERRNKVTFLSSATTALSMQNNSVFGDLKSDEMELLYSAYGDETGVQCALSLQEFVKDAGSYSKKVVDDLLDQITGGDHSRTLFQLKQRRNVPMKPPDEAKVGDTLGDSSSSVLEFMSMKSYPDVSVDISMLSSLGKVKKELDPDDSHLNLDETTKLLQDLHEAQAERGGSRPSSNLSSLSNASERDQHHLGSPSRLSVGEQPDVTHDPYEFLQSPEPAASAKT

[3] = biological target: T1, Bromodomain-containing protein 4; test: Inhibition of recombinant human N-terminal His6-FLAG-tagged BRD4 bromodomain 2 (unknown origin) expressed in Rosetta2 (DE3) pLysS cells after 60 mins by TR-FRET assay; type: cell-based
[4] = biological target: T3, Chromatin remodeling regulator CECR2 (Homo sapiens, UniProt Q9BXF3); test: Inhibition of recombinant human N-terminal His6-FLAG-tagged CECR2 expressed in Rosetta2 (DE3) pLysS cells after 60 mins by TR-FRET assay; type: cell-based
[5] = biological target: T4, Transcription initiation factor TFIID subunit 1 (Homo sapiens, UniProt P21675); test: Inhibition of recombinant human N-terminal His6-FLAG-tagged TAF1 bromodomain 2 (unknown origin) expressed in Rosetta2 (DE3) pLysS cells after 60 mins by TR-FRET assay; type: cell-based
[6] = biological target: T3, Chromatin remodeling regulator CECR2; test: Binding affinity to ZsGreen fused-CECR2 bromodomain (M404 to H515 residues) (unknown origin) expressed in human U2OS-C433 cells co expressing (MDPKKKRKVDPKKRKVDPKKKRKV) assessed as induction of protein bromodomain localization from chromatin by measuring formation of large nuclear puncta by fluorescence based assay; type: cell-based
[7] = biological target: T2, Bromodomain-containing protein 9; test: Binding affinity to human DNA-tagged BRD9 isoform 1 (130 to 259 residues) expressed in bacterial expression system by BROMOscan assay
[8] = biological target: T5, Bromodomain-containing protein 7 (Homo sapiens, UniProt Q9NPI1); test: Binding affinity to human DNA-tagged BRD7 (125 to 254 residues) expressed in mammalian expression system by BROMOscan assay
T5 sequence (Q9NPI1 whole entry): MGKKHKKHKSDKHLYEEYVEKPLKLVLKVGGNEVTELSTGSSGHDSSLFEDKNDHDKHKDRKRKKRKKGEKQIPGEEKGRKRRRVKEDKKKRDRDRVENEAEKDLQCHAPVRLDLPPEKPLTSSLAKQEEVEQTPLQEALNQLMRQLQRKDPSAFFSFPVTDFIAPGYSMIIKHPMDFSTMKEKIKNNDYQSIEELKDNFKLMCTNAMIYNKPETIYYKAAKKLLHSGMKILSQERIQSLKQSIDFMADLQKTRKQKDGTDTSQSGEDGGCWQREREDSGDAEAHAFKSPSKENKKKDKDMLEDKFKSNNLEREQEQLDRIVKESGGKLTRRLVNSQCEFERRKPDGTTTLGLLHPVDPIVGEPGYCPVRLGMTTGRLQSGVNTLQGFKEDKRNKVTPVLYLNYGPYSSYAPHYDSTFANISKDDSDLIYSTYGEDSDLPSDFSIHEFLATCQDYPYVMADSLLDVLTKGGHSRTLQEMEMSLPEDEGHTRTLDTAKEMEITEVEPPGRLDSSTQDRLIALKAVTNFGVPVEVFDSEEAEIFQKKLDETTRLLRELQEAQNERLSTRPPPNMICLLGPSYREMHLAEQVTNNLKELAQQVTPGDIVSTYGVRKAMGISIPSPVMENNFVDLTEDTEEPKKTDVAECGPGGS

[9] = biological target: T4, Transcription initiation factor TFIID subunit 1; test: Binding affinity to human DNA-tagged TAF1 bromodomain 2 (1521 to 1656 residues) expressed in bacterial expression system by BROMOscan assay
[10] = biological target: Transcription initiation factor TFIID subunit 1-like (Homo sapiens, UniProt Q8IZX4); test: Binding affinity to human DNA-tagged TAF1L bromodomain 2 (1523 to 1654 residues) expressed in bacterial expression system by BROMOscan assay
[11] = Kinetic solubility of the compound; type: physicochemical; conditions: read-out: Kinetic_solubility

T3 sequence (Q9BXF3 whole entry): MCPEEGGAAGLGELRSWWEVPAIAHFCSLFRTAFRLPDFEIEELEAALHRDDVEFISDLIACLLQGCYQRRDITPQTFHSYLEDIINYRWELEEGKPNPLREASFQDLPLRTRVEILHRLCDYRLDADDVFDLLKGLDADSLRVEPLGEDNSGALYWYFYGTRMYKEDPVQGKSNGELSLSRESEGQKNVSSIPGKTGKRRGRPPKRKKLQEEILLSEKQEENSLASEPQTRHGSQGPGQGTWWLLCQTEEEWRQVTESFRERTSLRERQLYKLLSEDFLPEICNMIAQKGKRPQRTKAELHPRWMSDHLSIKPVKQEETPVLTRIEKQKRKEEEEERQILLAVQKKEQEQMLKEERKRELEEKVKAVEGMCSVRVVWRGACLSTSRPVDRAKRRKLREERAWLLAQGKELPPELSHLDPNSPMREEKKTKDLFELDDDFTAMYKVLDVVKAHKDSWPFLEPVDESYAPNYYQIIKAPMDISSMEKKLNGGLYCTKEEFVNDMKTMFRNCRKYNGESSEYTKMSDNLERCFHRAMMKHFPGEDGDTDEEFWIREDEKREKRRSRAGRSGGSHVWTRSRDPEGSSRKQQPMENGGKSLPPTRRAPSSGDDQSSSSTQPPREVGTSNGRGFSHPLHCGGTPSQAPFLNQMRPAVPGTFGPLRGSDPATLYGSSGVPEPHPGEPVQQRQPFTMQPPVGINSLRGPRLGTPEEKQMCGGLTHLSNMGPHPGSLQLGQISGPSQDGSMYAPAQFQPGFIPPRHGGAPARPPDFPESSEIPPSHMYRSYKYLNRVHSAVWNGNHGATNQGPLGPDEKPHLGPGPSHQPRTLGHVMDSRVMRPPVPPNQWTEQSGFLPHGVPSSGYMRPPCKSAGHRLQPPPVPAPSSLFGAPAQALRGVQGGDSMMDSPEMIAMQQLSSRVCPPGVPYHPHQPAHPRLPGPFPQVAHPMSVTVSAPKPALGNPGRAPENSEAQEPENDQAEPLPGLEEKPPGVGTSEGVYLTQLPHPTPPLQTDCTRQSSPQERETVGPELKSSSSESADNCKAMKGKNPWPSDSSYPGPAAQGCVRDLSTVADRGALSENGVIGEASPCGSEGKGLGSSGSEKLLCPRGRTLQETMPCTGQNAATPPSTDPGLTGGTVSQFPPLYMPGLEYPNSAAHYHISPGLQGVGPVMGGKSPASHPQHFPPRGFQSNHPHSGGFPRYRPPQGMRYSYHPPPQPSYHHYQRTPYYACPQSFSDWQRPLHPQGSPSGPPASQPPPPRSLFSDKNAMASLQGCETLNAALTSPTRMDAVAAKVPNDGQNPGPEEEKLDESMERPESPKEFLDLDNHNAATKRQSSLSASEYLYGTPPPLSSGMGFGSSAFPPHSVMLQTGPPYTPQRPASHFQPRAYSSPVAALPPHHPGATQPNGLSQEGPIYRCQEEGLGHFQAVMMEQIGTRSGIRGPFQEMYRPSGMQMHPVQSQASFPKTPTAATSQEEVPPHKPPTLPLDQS
T4 sequence (P21675 whole entry, the tested form may be a part): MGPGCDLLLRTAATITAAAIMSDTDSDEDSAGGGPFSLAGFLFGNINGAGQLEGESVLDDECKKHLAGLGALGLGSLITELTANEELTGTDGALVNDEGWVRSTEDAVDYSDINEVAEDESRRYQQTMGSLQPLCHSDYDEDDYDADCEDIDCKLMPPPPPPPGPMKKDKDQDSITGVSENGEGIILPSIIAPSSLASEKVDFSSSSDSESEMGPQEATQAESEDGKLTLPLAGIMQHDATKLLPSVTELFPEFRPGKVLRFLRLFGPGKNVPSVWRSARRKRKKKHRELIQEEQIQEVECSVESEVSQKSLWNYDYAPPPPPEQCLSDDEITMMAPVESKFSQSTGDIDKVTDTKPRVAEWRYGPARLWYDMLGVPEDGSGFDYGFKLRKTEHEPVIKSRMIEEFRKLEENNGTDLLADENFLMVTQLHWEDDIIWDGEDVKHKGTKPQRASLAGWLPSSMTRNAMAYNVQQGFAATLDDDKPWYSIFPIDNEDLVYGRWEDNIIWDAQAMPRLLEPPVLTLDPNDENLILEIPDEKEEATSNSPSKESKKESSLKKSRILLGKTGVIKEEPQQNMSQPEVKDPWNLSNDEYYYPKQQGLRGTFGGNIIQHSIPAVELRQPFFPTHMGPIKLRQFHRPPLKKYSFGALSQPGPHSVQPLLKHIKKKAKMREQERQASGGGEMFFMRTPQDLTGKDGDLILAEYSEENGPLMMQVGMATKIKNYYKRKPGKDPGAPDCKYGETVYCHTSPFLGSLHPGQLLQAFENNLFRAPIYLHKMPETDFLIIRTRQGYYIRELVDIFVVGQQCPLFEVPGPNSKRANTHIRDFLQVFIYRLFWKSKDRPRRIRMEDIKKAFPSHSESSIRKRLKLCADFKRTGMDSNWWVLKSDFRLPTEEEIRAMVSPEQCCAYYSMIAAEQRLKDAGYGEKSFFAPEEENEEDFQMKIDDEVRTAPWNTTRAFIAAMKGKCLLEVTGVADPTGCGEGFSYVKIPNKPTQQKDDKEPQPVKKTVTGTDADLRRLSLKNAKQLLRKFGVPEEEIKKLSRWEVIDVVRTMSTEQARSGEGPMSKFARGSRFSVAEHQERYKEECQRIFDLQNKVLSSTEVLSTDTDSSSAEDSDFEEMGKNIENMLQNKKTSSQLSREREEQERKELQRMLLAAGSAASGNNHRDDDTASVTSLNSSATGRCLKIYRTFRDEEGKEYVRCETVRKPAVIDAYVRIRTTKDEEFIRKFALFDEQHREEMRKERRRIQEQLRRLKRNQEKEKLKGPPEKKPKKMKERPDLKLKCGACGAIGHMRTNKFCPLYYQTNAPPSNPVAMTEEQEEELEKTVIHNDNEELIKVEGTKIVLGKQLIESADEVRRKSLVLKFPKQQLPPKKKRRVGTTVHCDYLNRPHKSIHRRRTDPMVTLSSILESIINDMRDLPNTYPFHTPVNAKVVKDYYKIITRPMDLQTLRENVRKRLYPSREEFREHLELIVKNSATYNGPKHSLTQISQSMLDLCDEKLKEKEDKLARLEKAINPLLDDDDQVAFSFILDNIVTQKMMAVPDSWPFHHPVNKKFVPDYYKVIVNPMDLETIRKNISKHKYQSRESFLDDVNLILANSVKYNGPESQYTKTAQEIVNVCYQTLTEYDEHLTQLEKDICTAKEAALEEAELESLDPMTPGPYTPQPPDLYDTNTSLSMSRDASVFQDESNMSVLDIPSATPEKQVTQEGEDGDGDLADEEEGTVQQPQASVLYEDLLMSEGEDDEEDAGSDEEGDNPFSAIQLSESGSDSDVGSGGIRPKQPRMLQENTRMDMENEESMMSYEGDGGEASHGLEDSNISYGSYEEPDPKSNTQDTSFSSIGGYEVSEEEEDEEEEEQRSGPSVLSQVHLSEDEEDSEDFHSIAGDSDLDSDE

IC50 [1] [µM]	IC50 [2] [µM]	IC50 [3] [µM]	IC50 [4] [µM]	IC50 [5] [µM]	Compound	EC50 [6] [µM]	Kd [7] [µM]	Kd [8] [µM]	Kd [9] [µM]	Kd [10] [µM]	solubility kinetic [11] [µM]
> 20	11	6.1	0.33	3.6	CC(c1ccccc1)N1CCC(N(C)C(=O)c2cn(C)c(=O)c3[nH]ccc23)CC1 (racemic)	–	–	–	–	–	–
> 20	2.6	–	0.045	2.6	C=CCn1cc(C(=O)N(C)C2CCN(c3cc(-c4ccccc4OC)ncn3)CC2)c2cc[nH]c2c1=O	–	–	–	–	–	–
> 20	2.4	> 20	1.1	0.13	CN1CCC(NC(=O)c2cn(C)c(=O)c3[nH]ccc23)CC1	–	–	–	–	–	–
> 20	11.4	–	0.2	3.4	C=CCn1cc(C(=O)N(C)C2CCN(c3cc(C(F)(F)F)ncn3)CC2)c2cc[nH]c2c1=O	–	–	–	–	–	–
> 20	1.7	–	0.046	2.4	C=CCn1cc(C(=O)N(C)C2CCN(c3cc(-c4ccccc4C)ncn3)CC2)c2cc[nH]c2c1=O	–	–	–	–	–	–
> 20	3.3	–	0.045	2.5	C=CCn1cc(C(=O)N(C)C2CCN(c3cc(-c4ccco4)ncn3)CC2)c2cc[nH]c2c1=O	–	–	–	–	–	–
> 20	7.6	–	0.093	5.1	C=CCn1cc(C(=O)N(C)C2CCN(c3cc(C)nc(C)n3)CC2)c2cc[nH]c2c1=O	–	–	–	–	–	–
> 20	8.5	–	0.13	2.8	C=CCn1cc(C(=O)N(C)C2CCN(c3cc(OC)ncn3)CC2)c2cc[nH]c2c1=O	–	–	–	–	–	–
> 20	4.4	> 20	0.19	11.9	C=CCn1cc(C(=O)N(C)C2CCN([C@@H](C)c3ccccc3)CC2)c2cc(C)[nH]c2c1=O	–	–	–	–	–	–
> 20	3.5	–	0.052	3.3	C=CCn1cc(C(=O)N(C)C2CCN(c3cc(C4CC4)nc(C)n3)CC2)c2cc[nH]c2c1=O	–	–	–	–	–	–
> 20	6.9	–	0.059	3.4	C=CCn1cc(C(=O)N(C)C2CCN(c3cc(-n4cccn4)ncn3)CC2)c2cc[nH]c2c1=O	–	–	–	–	–	–
> 20	5.8	–	0.071	2.7	C=CCn1cc(C(=O)N(C)C2CCN(c3cc(OC)nc(C)n3)CC2)c2cc[nH]c2c1=O	–	–	–	–	–	–
> 20	> 20	> 20	0.5	16.1	C=CCn1cc(C(=O)N(C)C2CCN(C(C)c3ccccc3)CC2)c2cc[nH]c2c1=O (racemic)	–	–	–	–	–	–
> 20	5	–	0.24	2.1	C=CCn1cc(C(=O)N(C)C2CCN(c3ccncn3)CC2)c2cc[nH]c2c1=O	–	–	–	–	–	–
> 20	3.5	> 20	0.2	16.5	C=CCn1cc(C(=O)N(C)C2CCN([C@H](C)c3ccccc3)CC2)c2cc(C)[nH]c2c1=O	–	–	–	–	–	–
> 20	1.5	–	0.044	2.5	C=CCn1cc(C(=O)N(C)C2CCN(c3cc(-c4ccccc4F)ncn3)CC2)c2cc[nH]c2c1=O	–	–	–	–	–	–
> 20	6.1	–	0.083	1.8	C=CCn1cc(C(=O)N(C)C2CCN(c3cc(C4CC4)ncn3)CC2)c2cc[nH]c2c1=O	–	–	–	–	–	–
> 20	5.7	–	0.055	2.8	C=CCn1cc(C(=O)N(C)C2CCN(c3cc(C(C)(C)C)ncn3)CC2)c2cc[nH]c2c1=O	–	–	–	–	–	–
> 20	17.8	19.2	0.5	8.4	CC(C)N1CCC(N(C)C(=O)c2cn(C)c(=O)c3[nH]ccc23)CC1	–	–	–	–	–	–

Compound	IC50 [1] [µM]	IC50 [2] [µM]	IC50 [3] [µM]	IC50 [4] [µM]	IC50 [5] [µM]	EC50 [6] [µM]	Kd [7] [µM]	Kd [8] [µM]	Kd [9] [µM]	Kd [10] [µM]	solubility kinetic [11] [µM]
CN1CCC(N(C)C(=O)c2cn(C)c(=O)c3[nH]ccc23)CC1	> 20	> 20	17.2	0.78	6.1	–	–	–	–	–	–
C=CCn1cc(C(=O)N(C)C2CCN(c3cc(-c4cccc(OC)c4)ncn3)CC2)c2cc[nH]c2c1=O	> 20	1.6	–	0.016	1.4	0.37	2	1.1	0.62	2.4	122 (≈ 60.8 µg/mL)
